# According to patent US20160310477A1, “CANCER TREATMENTS USING COMBINATIONS OF MEK TYPE 1 AND ERK INHIBITORS” (BIOMED VALLEY DISCOVERIES, INC., priority 2013, published 2016):
# Columns and labels:
# [1] = system: MAPK signaling in A375 cells; assay: Western blot of MAPK signaling, cell cycle and apoptosis markers; type: cell-based, human
# [2] = system: MAPK signaling in HCT116 cells; assay: Western blot of MAPK signaling markers; type: cell-based, human; settings: HCT116, 4 hours, micromolar concentrations
# Method: For Western blot studies, HCT116 cells (5×10^6) were seeded into 10 cm dishes in McCoy's 5A plus 10% FBS. […] Cells were allowed to adhere overnight prior to addition of the indicated amount of test compound (BVD-523) or vehicle control. Cells were treated for either 4 or 24 hours before isolation of whole-cell protein lysates, as specified below. Cells were harvested by trypsinisation, pelleted and snap frozen. Lysates were prepared with RIPA (Radio-Immunoprecipitation Assay) buffer, clarified by centrifugation and quantitated by bicinchoninic acid assay (BCA) assay. 20-50 μg of protein was resolved by SDS-PAGE electrophoresis, blotted onto PVDF membrane and probed using the antibodies detailed in Table 5 (for the 4-hour treatment) and Table 6 (for the 24-hour treatment) below. [table]
# [3] = system: ERK; settings: Morris et al., 2013; cited from earlier work
Compound,cyclin-D1 level ([1]; 24 hours of treatment),"phosphorylation of ERK-dependent residues (T359/S363) in RSK 1 and 2 proteins ([1]; A375, 4 hours, micromolar concentrations)","Bim-EL level ([1]; A375, prolonged treatment)","apoptosis / PARP cleavage ([1]; A375, prolonged treatment)","MAPK feedback phosphatase DUSP6 level ([1]; BRAF mutant cell line, 24 hours of treatment)",autophosphorylation of ERK ([1]; FIG. 1 Western blot),"concentrations required to induce changes in substrate phosphorylation and effector targets of ERK ([1]; RAF and RAS mutant cancer cells, Western blot, 4 or 24 h)",phosphorylation of ERK-dependent residues (T359/S363) in RSK 1 and 2 proteins [2],autophosphorylation of ERK [3]
CC(C)Nc1cc(-c2c[nH]c(C(=O)N[C@H](CO)c3cccc(Cl)c3)c2)c(Cl)cn1 [BVD-523],greatly reduced,reduced,increased,increased apoptosis was not observed,greatly reduced,allows for the autophosphorylation of ERK,low micromolar range,reduced,–
O=C(Nc1ccc2[nH]nc(-c3ccncc3)c2c1)[C@@H]1CCN(CC(=O)N2CCN(c3ccc(-c4ncccn4)cc3)CC2)C1 [SCH772984],–,–,–,–,–,–,–,–,inhibits autophosphorylation of ERK
